Data on 37 compounds can be found in patent US8716292B2, “Riminophenazines with 2-(heteroaryl)amino substituents and their anti-microbial activity” (priority 2010, dated 2014).

The test system of the test is Mycobacterium tuberculosis H37Rv strains. Kind of test: In vitro assay for antimicrobial susceptibility (microplate Alamar blue MIC). To be noted: Mycobacterium tuberculosis, H37RV, read-out: MIC (μg/mL) against H37Rv. The test is classed as cell-based. On the technique in general: Resazurin is reduced to fluorescent resorufin, in cell work by metabolically active cells.

Where [1] appears, read: in vitro, Mycobacterium tuberculosis H37Rv strains.

Each structure is given as a SMILES string. In brackets after ≈: the same amount, converted by molar mass. Read-outs that look alike come from different tables or passages of the source.

As for `O[C@H]1CC[C@H](/N=c2\cc3n(-c4ccc(F)cc4)c4ccccc4nc-3cc2Nc2cccnc2)CC1` [TBI-921, 5-(4-Fluorophenyl)-3-(1′,4′-trans-4-hydroxycyclohexyl)imino-2-(3-pyridyl)amino-3,5-dihydrophenazine], the MIC under setting [1] turned out to be 0.434 µg/mL (≈ 0.905 µM).
Regarding `Cc1ccc(Nc2cc3nc4ccccc4n(-c4ccc(Cl)cc4)c-3c/c2=N\C(C)C)cn1` [TBI-441], the MIC under setting [1] is 0.06 µg/mL (≈ 0.132 µM).
On the same count and under the same terms, next, `Cc1ncccc1Nc1cc2nc3ccccc3n(-c3ccc(Cl)cc3)c-2c/c1=N\C(C)C` [TBI-448, 5-(4-Chlorophenyl)-3-(1-methylethyl)imino-2-(2-methyl-3-pyridyl)amino-3,5-dihydrophenazine]: 0.055 µg/mL (≈ 0.121 µM); `Cc1ccc(Nc2cc3nc4cc(C#N)ccc4n(-c4ccc(F)cc4)c-3c/c2=N\C(C)C)cn1` [TBI-1067, 8-Cyano-5-(4-fluorophenyl)-3-(1-methylethyl)imino-2-(6-methyl-3-pyridyl)amino-3,5-dihydrophenazine]: 0.117 µg/mL (≈ 0.253 µM); `Cc1ccc(-n2c3c/c(=N\CCN4CCOCC4)c(Nc4cccnc4)cc-3nc3ccccc32)cc1` [TBI-302, 5-(4-Methylphenyl)-3-(2-morpholinoethyl)imino-2-(3-pyridyl)amino-3,5-dihydro-phenazine]: 0.125 µg/mL (≈ 0.255 µM).
Still for that read-out and setting: next, `Cc1ccc(-n2c3c/c(=N\C4CC4)c(Nc4cccnc4)cc-3nc3ccccc32)cc1` [TBI-349, 5-(4-Methylphenyl)-3-cyclopropylimino-2-(3-pyridyl)amino-3,5-dihydrophenazine]: 0.0075 µg/mL (≈ 0.018 µM); `CN1CCC(/N=c2\cc3n(-c4ccc(OC(F)(F)F)cc4)c4ccccc4nc-3cc2Nc2cccnc2)CC1` [TBI-159, 5-(4-Trifluoromethoxyphenyl)-3-(N-methyl-4-piperidyl)imino-2-(3-pyridyl)amino-3,5-dihydrophenazine]: 0.25 µg/mL (≈ 0.459 µM); `COc1ncccc1Nc1cc2nc3ccccc3n(-c3ccc(F)cc3)c-2c/c1=N\C1CCC(O)CC1` (stereo not shown) [TBI-1008, 5-(4-Fluorophenyl)-3-(4-hydroxycyclohexyl)imino-2-(2-methoxy-3-pyridyl)amino-3,5-dihydrophenazine]: 0.248 µg/mL (≈ 0.487 µM).
On the same count and under the same terms, the result for `Cc1ccc(-n2c3c/c(=N\C4CCCCC4)c(Nc4cncc(C)c4)cc-3nc3ccccc32)cc1` [TBI-329, 5-(4-Methylphenyl)-3-cyclohexylimino-2-(5-methyl-3-pyridyl)amino-3,5-dihydrophenazine] reads 0.092 µg/mL (≈ 0.194 µM); that for `COc1ncccc1Nc1cc2nc3ccccc3n(-c3ccc(C(F)(F)F)cc3)c-2c/c1=N\C1CC1` [TBI-718, 5-(4-Trifluoromethylphenyl)-3-cyclopropylimino-2-(2-methoxy-3-pyridyl)amino-3,5-dihydrophenazine], 0.015 µg/mL (≈ 0.0299 µM); that for `COC1CCC(/N=c2\cc3n(-c4ccccc4)c4ccccc4nc-3cc2Nc2cncc(C)c2)CC1` (stereo not shown) [TBI-084, 5-Phenyl-3-(4-methoxycyclohexyl)imino-2-(5-methyl-3-pyridyl)amino-3,5-dihydrophenazine], 0.059 µg/mL (≈ 0.121 µM).
For `c1ccc(-n2c3c/c(=N\C4CCOCC4)c(Nc4cccnc4)cc-3nc3ccccc32)cc1` [TBI-058, 5-Phenyl-3-(4-tetrahydropyranyl)imino-2-(3-pyridyl)amino-3,5-dihydrophenazine], the MIC under setting [1] is 0.06 µg/mL (≈ 0.134 µM).
As to `COC1CCC(/N=c2\cc3n(-c4ccc(F)cc4)c4ccc(C#N)cc4nc-3cc2Nc2ccc(C)nc2)CC1` (stereo not shown) [TBI-1068, 8-Cyano-5-(4-fluorophenyl)-3-(4-methyoxycyclohexyl)imino-2-(6-methyl-3-pyridyl)amino-3,5-dihydrophenazine], under setting [1], the MIC came out at 0.165 µg/mL (≈ 0.31 µM).
`COC1CCC(/N=c2\cc3n(-c4ccc(F)cc4)c4ccccc4nc-3cc2Nc2cnccn2)CC1` (stereo not shown) [TBI-1079, 5-(4-Fluorophenyl)-3-(4-methoxycyclohexyl)imino-2-(pyrazin-2-yl)amino-3,5-dihydrophenazine]: the MIC (7H9, Alamar blue, inhibition ≧90%) was found to be 0.037 µg/mL (≈ 0.0748 µM).
Take `COc1ncccc1Nc1cc2nc3ccccc3n(-c3ccc(C(F)(F)F)cc3)c-2c/c1=N\C1CCC(OC)CC1` (stereo not shown) [TBI-700, 5-(4-Trifluoromethylphenyl)-3-(4-methoxycyclohexyl)imino-2-(2-methoxy-3-pyridyl)amino-3,5-dihydrophenazine]: the MIC under setting [1] came out at 0.016 µg/mL (≈ 0.0279 µM).
Regarding `Cc1ncccc1Nc1cc2nc3ccccc3n(-c3ccc(C(F)(F)F)cc3)c-2c/c1=N\C(C)C` [TBI-705, 5-(4-Trifluoromethylphenyl)-3-(1-methylethyl)imino-2-(2-methyl-3-pyridyl)amino-3,5-dihydrophenazine], the MIC under setting [1] came out at 0.014 µg/mL (≈ 0.0287 µM).
Still for that read-out and setting: the result for `Cc1ccc(Nc2cc3nc4ccccc4n(-c4ccccc4)c-3c/c2=N\C2CCN(CC(C)C)CC2)cn1` [TBI-068, 5-Phenyl-3-(N-isobutyl-4-piperidyl)imino-2-(6-methyl-3-pyridyl)amino-3,5-dihydrophenazine] reads 0.156 µg/mL (≈ 0.302 µM); that for `COc1ncccc1Nc1cc2nc3ccccc3n(-c3ccccc3)c-2c/c1=N\C1CC1` [TBI-097, 5-Phenyl-3-cyclopropylimino-2-(2-methoxy-3-pyridyl)amino-3,5-dihydrophenazine], 0.032 µg/mL (≈ 0.0738 µM); that for `COc1ccc2nc3cc(Nc4cccnc4OC)/c(=N/C(C)C)cc-3n(-c3ccc(Cl)cc3)c2c1` [TBI-939, 7-Methoxy-5-(4-chlorophenyl)-3-(1-methylethyl)imino-2-(2-methoxy-3-pyridyl)amino-3,5-dihydrophenazine], 0.125 µg/mL (≈ 0.25 µM).
Still for that read-out and setting: the result for `Cc1ccc(-n2c3c/c(=N\C(C)C)c(Nc4cncc(C)c4)cc-3nc3ccccc32)cc1` [TBI-327, 5-(4-Methylphenyl)-3-(1-methylethyl)imino-2-(5-methyl-3-pyridyl)amino-3,5-dihydrophenazine] reads 0.109 µg/mL (≈ 0.251 µM); that for `CC(C)/N=c1\cc2n(-c3ccc(OC(F)(F)F)cc3)c3ccccc3nc-2cc1Nc1cccnc1` [TBI-157, 5-(4-Trifluoromethoxyphenyl)-3-(1-methylethyl)imino-2-(3-pyridyl)amino-3,5-dihydrophenazine], 0.03 µg/mL (≈ 0.0613 µM); that for `Brc1ccc(-n2c3c/c(=N\C4CCCCC4)c(Nc4cccnc4)cc-3nc3ccccc32)cc1` [TBI-089, 5-(4-Bromophenyl)-3-cyclohexylimino-2-(3-pyridyl)amino-3,5-dihydrophenazine], 0.021 µg/mL (≈ 0.04 µM).
Same read-out and setting: next, `COC1CCC(/N=c2\cc3n(-c4ccc(F)cc4)c4ccccc4nc-3cc2Nc2cccnc2)CC1` (stereo not shown) [TBI-685, 5-(4-Fluorophenyl)-3-(4-methoxycyclohexyl)imino-2-(3-pyridyl)amino-3,5-dihydrophenazine]: 0.125 µg/mL (≈ 0.253 µM); `Cc1ccc(Nc2cc3nc4ccccc4n(-c4cccc(Cl)c4)c-3c/c2=N\C2CCCCC2)cn1` [TBI-80B, 5-(3-Chlorophenyl)-3-cyclohexylimino-2-(6-methyl-3-pyridyl)amino-3,5-dihydrophenazine]: 0.125 µg/mL (≈ 0.253 µM); `COc1ccc(Nc2cc3nc4ccccc4n(-c4ccc(C(F)(F)F)cc4)c-3c/c2=N\C2CCOCC2)cn1` [TBI-733, 5-(4-Trifluoromethylphenyl)-3-(4-tetrahydropyranyl)imino-2-(6-methoxy-3-pyridyl)amino-3,5-dihydrophenazine]: 0.111 µg/mL (≈ 0.203 µM).
In the case of `Cc1ccc(-n2c3c/c(=N\C(C)C)c(Nc4cccnc4)cc-3nc3ccccc32)cc1` [TBI-300, 5-(4-Methylphenyl)-3-(1-methylethyl)imino-2-(3-pyridyl)amino-3,5-dihydrophenazine], the MIC under setting [1] worked out at 0.03 µg/mL (≈ 0.0715 µM).
Regarding `Cc1cncc(Nc2cc3nc4ccccc4n(-c4ccccc4)c-3c/c2=N\C2CCC(O)CC2)c1` (stereo not shown) [TBI-085, 5-Phenyl-3-(4-hydroxycyclohexyl)imino-2-(5-methyl-3-pyridyl)amino-3,5-dihydrophenazine], under setting [1], the MIC is 0.5 µg/mL (≈ 1.05 µM).
The same measure, in the same setting: the result for `COc1ncccc1Nc1cc2nc3ccccc3n(-c3ccccc3)c-2c/c1=N\C1CCC1` [TBI-505, 5-Phenyl-3-cyclobutylimino-2-(2-methoxy-3-pyridyl)amino-3,5-dihydrophenazine] reads 0.043 µg/mL (≈ 0.0961 µM).
Same read-out and setting: the result for `Clc1cccc(-n2c3c/c(=N\C4CCC4)c(Nc4cccnc4)cc-3nc3ccccc32)c1` [TBI-814, 5-(3-Chlorophenyl)-3-cyclobutylimino-2-(3-pyridyl)amino-3,5-dihydrophenazine] reads 0.04 µg/mL (≈ 0.0885 µM); that for `COc1ncccc1Nc1cc2nc3ccccc3n(-c3ccc(NC(C)=O)cc3)c-2c/c1=N\C1CC1` [TBI-1221, 5-(4-Acetamidophenyl)-3-cyclopropylimino-2-(2-methoxy-3-pyridyl)amino-3,5-dihydrophenazine], 0.9 µg/mL (≈ 1.83 µM); that for `CC(C)/N=c1\cc2n(-c3cccc(Cl)c3)c3ccccc3nc-2cc1Nc1cccnc1` [TBI-810, 5-(3-Chlorophenyl)-3-(1-methylethyl)imino-2-(3-pyridyl)amino-3,5-dihydrophenazine], 0.103 µg/mL (≈ 0.234 µM).
As to `Cc1ccc(Nc2cc3nc4ccccc4n(-c4ccc(F)cc4)c-3c/c2=N\C2CC2)cn1` [TBI-908, 5-(4-Fluorophenyl)-3-cyclopropylimino-2-(6-methyl-3-pyridyl)amino-3,5-dihydrophenazine], the MIC under setting [1] came out at 0.03 µg/mL (≈ 0.0689 µM).
The same measure, in the same setting: next, `COc1ccc(Nc2cc3nc4ccccc4n(-c4ccccc4)c-3c/c2=N\C2CCC2)cn1` [TBI-512, 5-Phenyl-3-cyclobutylimino-2-(6-methoxy-3-pyridyl)amino-3,5-dihydrophenazine]: 0.41 µg/mL (≈ 0.916 µM).
On the same count and under the same terms, next, `Cc1ncccc1Nc1cc2nc3ccccc3n(-c3ccc(F)cc3)c-2c/c1=N\C1CCC(O)CC1` (stereo not shown) [TBI-1015, 5-(4-Fluorophenyl)-3-(4-hydroxycyclohexyl)imino-2-(2-methyl-3-pyridyl)amino-3,5-dihydrophenazine]: 0.387 µg/mL (≈ 0.784 µM); `COc1ccc(Nc2cc3nc4ccccc4n(-c4ccc(C(F)(F)F)cc4)c-3c/c2=N\C2CCCCC2)cn1` [TBI-732]: 0.113 µg/mL (≈ 0.208 µM); `Cc1ccc(Nc2cc3nc4ccccc4n(-c4ccc(C(F)(F)F)cc4)c-3c/c2=N\C2CC2)cn1` [TBI-716, 5-(4-Trifluoromethylphenyl)-3-cyclopropylimino-2-(6-methyl-3-pyridyl)amino-3,5-dihydrophenazine]: 0.041 µg/mL (≈ 0.0844 µM).
The same measure, in the same setting: the result for `COc1ncccc1Nc1cc2nc3ccc(F)cc3n(-c3ccc(Cl)cc3)c-2c/c1=N\C1CCOCC1` [TBI-928] reads 0.5 µg/mL (≈ 0.943 µM).
